Measurements from patent US20020009508A1, “Echinacea extract as anti-irritant and anti-aging booster in cosmetic compositions” (priority 2000, published 2002).

System: IL-1a-induced PGE2 in neonatal human dermal fibroblasts
Experiment: Inhibition of IL-1a-induced PGE2 production in fibroblasts (PGE2 enzyme immunoassay)
Type: cell-based
Description: Neonatal human dermal fibroblasts (passage 5-9) were seeded at a density of 7500 cells per well in 96-well tissue culture treated plates (Corning-Costar, Corning, N.Y.). The medium used was Dulbecco's Modified Eagle's Medium (DMEM), high-glucose (Gibco/Life Technologies, Gaithersburg, Md.) supplemented with 2 mM L-glutamine, 10% fetal bovine serum, and antibiotic and anti mycotic solutions (all also Life Technologies). After 48 hours, each well was rinsed twice with 200 μl serum-free DMEM and the cells dosed with 200 μl in DMEM+L-glutamine containing IL-1α at 1 ng/ml +/− active. […]
Enzyme immunoassay was performed using a commercial PGE2 kit (Amersham, Buckinghamshire, England). […] The assay is based on the competition between unlabelled PGE2 (standard or sample) and a fixed quantity of peroxidase labelled PGE2 for a limited amount of the well-bound PGE2-specific antibody. […] The Dynatech MR7000 microplate spectrophotometer (Dynatech, Chantilly, Va.) was used to quantitate color in the wells by reading absorbance at 450 nm. […]
The antiinflammatory potential of the test compounds is assessed by the ability of the compound to inhibit IL-1a-induced PGE2 and is expressed as the ratio of PGE2 produced by the cells treated with the test compound +IL-1a to PGE2 produced by the cells treated with IL-1a alone. […] Statistical significance was determined using the student's t-test.

Chicoric acid
Ratio of PGE2 with echinacea + IL-1a/IL-1a (Table 1b, concentration 0.001%): 0.02 | Effectiveness in the PGE2 test (in words) (at 0.001%): effective
